Values joined by “and” are separate entries in the source; they are usually repeats but may differ in a detail not shown here. Identical values can stand only once. No end group written: not given here.
What was measured:
[1] = tested on: memory CD8^+ T cells within PBMCs; type: cell-based, human
A2/PB1413^+CD8^+ T cells = type: cell-based, human
IBV = tested on: IBV; set-up: species or system HHD-A2 mice; settings: mouse, in vivo
tetramer^+ CD8^+ T cells [2] = type: cell-based, human
human lung CD8^+ T cells = test: Ex vivo tetramer detection in human lung samples from deceased organ donors; type: cell-based
Excerpt: As human memory CD8^+ T cells also reside outside the circulation, a rare set of human lung samples from deceased organ donors (n=3) were used to assess the presence of universal A2/PB1413^+CD8^+ T cells at the site of infection. CD8^+ T cells specific for A2/M158 and A2/PB1413, but not A2/BHA543 were detected within human lung CD8^+ T cells (2/3 donors for either specificity, FIG. 3f). […] Although based on a limited number of donors, this analysis indicates the presence of universal A2/PB1413^+ tissue-resident memory CD8^+ T cell pools in the human lung.

tetramer^+ CD8^+ T cells [3] = test: Tetramer staining of IAV- or IBV-specific CD8^+ T cell lines established in vitro from healthy adult PBMC; type: cell-based, human; settings: for tetramer^+ of CD8^+ T cells, median: n=11
Excerpt: Conversely, the universal A2/PB1413 epitope within the IBV-specific T cell lines was immunodominant (0.3%; detected in 8/11 donors) over the IBV-specific A2/BHA543 (0.11%; detected in 10/11 donors) and A2/BNS1266 epitopes (0.01%) (FIG. 4c).

HLA-A*02:01 = HLA-A*02:01 (Homo sapiens, UniProt P04439, D140Y/D185E/D98H/E176V/E277Q/G131W/G231S/I119V/I121R/I166T/I218V/L300P/L318F/N151K/N90K/P208A/P217A/Q86G/Q94H/R138H/R169H/T345S); test: Thermal stability of pHLA-A*02:01 complex (Tm); type: binding
CD8^+ T cells [4] = type: cell-based, human
tetramer^+CD8^+ T cells = type: cell-based, human
[5] = tested on: A2/PB1413-specific CD8^+ T cells; type: cell-based, human; settings: n=24
CD8^+ T cells [6] = tested on: CD8^+ T cells
[7] = IAV-specific CD8^+ T cell lines

NMLSTVLGV [PB1413-421, NMLSTVLGV]
memory CD8^+ T cell responses (IFN-γ production after peptide re-stimulation) [1]: robust memory CD8^+ T cell responses | IFN-γ production towards peptide (A2/PB1413^+CD8^+ T cells): minimal | magnitude of A2/PB1413-specific CD8^+ T cells (A2/PB1413^+CD8^+ T cells): markedly increased | epitope-specific CD8^+ T cells after immunization (IBV): could not be detected | CD38^+/Ki-67^+ expression of tetramer-positive CD8^+ T cells (tetramer^+ CD8^+ T cells [2]): increase | increase in frequency of epitope-specific CD8^+ T cells in blood versus healthy donors (tetramer^+ CD8^+ T cells [2]): 6 fold | increase in numbers of epitope-specific CD8^+ T cells versus healthy donors (tetramer^+ CD8^+ T cells [2]): 2.6 fold | individuals with detected epitope-specific CD8^+ T cells (tetramer^+ CD8^+ T cells [2]): 50% and 87.5% | phenotype of the majority of lung tetramer^+ CD8^+ T cells (human lung CD8^+ T cells; human lung): tissue-resident memory CD69^+CD103^+CD45RO^+ phenotype | epitope-specific CD8^+ T cells detected within human lung CD8^+ T cells (human lung CD8^+ T cells; n=3 lung donors): 2/3 | donors with detected tetramer^+ cells (tetramer^+ CD8^+ T cells [3]; [7]): 10/11 | tetramer^+ of CD8^+ T cells, median (tetramer^+ CD8^+ T cells [3]; [7]): 0.12% | donors with detected tetramer^+ cells (tetramer^+ CD8^+ T cells [3]; IBV-specific T cell lines): 8/11 | tetramer^+ of CD8^+ T cells, median (tetramer^+ CD8^+ T cells [3]; IBV-specific T cell lines): 0.3% | Tm (temperature required to unfold 50% of the protein) of pHLA-A*02:01 complex (HLA-A*02:01): ~72 °C | additional low avidity CD8^+ T cells detected by Q115E staining (CD8^+ T cells [4]): no additional | increase from baseline to d14 (tetramer^+CD8^+ T cells): 19 fold | healthy donors with detectable levels of epitope-specific CD8^+ T cells [5]: 80% | EC50 (CD8^+ T cells [6]): 0.89 nM

Reference: patent US11517617B2, “Methods and compositions for preventing influenza infection” (THE UNIVERSITY OF MELBOURNE, priority 2017, dated 2022)
